Patent US20170172963A1, “COMPOSITIONS AND METHODS FOR THE PREVENTION AND OR TREATMENT OF SCHISTOSOMIASIS” (DSM IP ASSETS B.V., priority 2014, published 2017)
“And” between values parts separate entries of the source, which are not always exact repeats. Equal values may be shown once.

Experiments:
Assay type in all cases: in vivo, human
[1] = system: Schistosoma mansoni; assay: Example 2: stool egg counts (epg) and cure rate in infected school children, El Kafr Sheikh; parameters: % epg reduction: concentration or dose not given beside the values
Description: School children from El Kafr Sheikh were screened similar to those school children in Example 1 above.
(§1) The children were divided randomly into three groups whereby the first group of children were given a single oral dose of Praziquantel (PZQ) (40 mg/kg body weight) on the first day of treatment and a placebo was given for the next three weeks (5 doses/week) (“PZQ-Placebo Treatment”). The PZQ was Distocide (Epico, El-Asher-Men-Ramadan City, Egypt). The placebo was 1 g VegCap, containing corn-soy (DSM Nutritional Products, Columbia, Md.). The second group of children received ARA (10 mg/kg body weight/day) for 15 days over three weeks (5 days/week) (“ARA Treatment”). The ARA was 1 g VegCap (DSM) containing approximately 395 mg ARA/capsule. The third group of children were given Praziquantel (40 mg/kg body weight) in the first day of treatment and then received 15 doses of ARA (10 mg/kg/day; 5 doses/week) (“PZQ-ARA Treatment”).
(§2) Approximately 10 ml blood were obtained from each child 2-3 days before the start of the treatment and 3 days after the end of the ARA (or ARA+PZQ) treatment, corresponding to 18 days after PZQ-only treatment. Stool samples were obtained from each child on 3 consecutive days 1 week after the end of the ARA treatment (corresponding to 4 weeks after the PZQ-only treatment) and 6 weeks after the end of the ARA treatment (corresponding to 9 weeks after the PZQ-only treatment). Epg was assessed on each stool sample.
(§3) Subjects having initial baseline epg counts <100 were classified as having low infection. Subjects having initial baseline epg counts >100 but <400 were classified as having moderate infection. Subjects having initial baseline epg counts >400 were classified as having high infection.

[2] = system: Schistosoma mansoni; assay: Example 1: stool egg counts (Kato-Katz, epg) and cure rate in infected school children, Menoufiya; conditions: for % cure rate: children with 0 epg after week 9
Description: Approximately 2000 school children in villages of three districts in the Menoufiya governorate located about 100 km north of Cairo, Egypt were screened. Two microscopic slides of stool samples were examined for each child on 3 consecutive days by the Kato-Katz method and egg counts per gram (epg) were recorded. 66 children, 44 males and 22 females, 6-15 years old (mean±SD=11.7±1.6), with weight range of 25-52 kg (mean±SD=37.8±8.6), and epg of 24-384 were selected as test subjects. 20 sex, age, and social conditions-matched, parasite-free children were used as controls.
The 66 children were divided randomly into three groups whereby the first group of 20 children were given a single oral dose of Praziquantel (PZQ) (40 mg/kg body weight) on the first day of treatment and a placebo was given for the next three weeks (5 doses/week) (“PZQ-Placebo Treatment”). The PZQ was Distocide (Epico, El-Asher-Men-Ramadan City, Egypt). The placebo was 1 g VegCap, containing corn-soy (DSM Nutritional Products, Columbia, Md.). The second group of 23 children received ARA (10 mg/kg body weight/day) for 15 days over three weeks (5 days/week) (“ARA Treatment”) The ARA was 1 g VegCap (DSM) containing approximately 395 mg ARA/capsule. The third group of 23 children were given Praziquantel (40 mg/kg body weight) in the first day of treatment and then received 15 doses of ARA (10 mg/kg/day; 5 doses/week) (“PZQ+ARA Treatment”).
as §2, §3

[3] = system: IL-10; assay: Example 2: plasma IL-10 level by capture ELISA after treatment; conditions: for Median IL-10 after treatment / % reduction in IL-10 levels: plasma; for Median IL-10 after treatment: 3 days after end of ARA treatment (18 days after PZQ); for % reduction in IL-10 levels: after treatment vs baseline
Description: as §1, §2
(§4) Plasma was retrieved from heparinized blood following centrifugation at 400 g for 20 minutes and stored at −76° C. until assayed by capture enzyme-linked immunosorbent assay (ELISA) for levels of IL-10 and IFN-γ (ELISA MAX™ Set, BioLegend, San Diego, Calif.) according to the manufacturer's protocol.

[4] = system: IFN-γ; assay: Example 2: plasma IFN-γ level by capture ELISA after treatment; conditions: for Median IFN-γ after treatment / % reduction in IFN-γ levels: plasma; for Median IFN-γ after treatment: 3 days after end of ARA treatment (18 days after PZQ); for % reduction in IFN-γ levels: after treatment vs baseline
Description: as §1, §2, §4

[5] = initial baseline epg < 100, mean epg 6 weeks after treatment vs mean baseline epg
[6] = initial baseline epg > 100 and < 400, mean epg 6 weeks after treatment vs mean baseline epg
[7] = initial baseline epg > 400, mean epg 6 weeks after treatment vs mean baseline epg
[8] = low infection, initial baseline epg < 100
[9] = moderate infection, initial baseline epg > 100 and < 400
[10] = low infection (baseline epg < 100)
[11] = moderate and high infection (baseline epg > 100)

Compound | % epg reduction [1, 5] [%] | % epg reduction [1, 6] [%] | % epg reduction [1, 7] [%] | % cured [1, 8] | % cured [1, 9] | % cure rate [2, 10] [%] | % cure rate [2, 11] [%] | Median IL-10 after treatment [3] [pg/mL] | % reduction in IL-10 levels [3] [%] | Median IFN-γ after treatment [4] [pg/mL] | % reduction in IFN-γ levels [4] [%] | also measured
CCCCC/C=C\C/C=C\C/C=C\C/C=C\CCCC(=O)O [ARA, all-cis 5,8,11,14-eicosatetreanoic acid] | −2.6 | 49 | 65 | 50% and 50 (22/43) % | 49% and 28 (4/19) % | 77 | 50 | 40 | 50 | 25 | 70 | epg After Week 4 ([2]; individual subjects with initial baseline epg < 100, stool 4 weeks after PZQ / 1 week after end of ARA): 12 epg and 0 epg (4×) and 144 epg and 24 epg (2×) and 20 epg and 52 epg and 48 epg and 19 epg; epg After Week 9 ([2]; individual subjects with initial baseline epg < 100, stool 9 weeks after PZQ / 6 weeks after end of ARA): 0 epg (10×) and 376 epg and 20 epg and 42 epg; epg After Week 4 ([2]; individual subjects with initial baseline epg > 100, stool 4 weeks after PZQ / 1 week after end of ARA): 240 epg and 96 epg (3×) and 749 epg and 216 epg and 84 epg and 0 epg and 48 epg and 60 epg; epg After Week 9 ([2]; individual subjects with initial baseline epg > 100, stool 9 weeks after PZQ / 6 weeks after end of ARA): 0 epg (5×) and 108 epg and 48 epg and 28 epg and 20 epg and 152 epg; levels of circulating IL-10 (result in words) ([3]; after treatment): more effective; levels of circulating IFN-γ (result in words) ([4]; after treatment): more effective
O=C(C1CCCCC1)N1CC(=O)N2CCc3ccccc3C2C1 (stereo not drawn) [PZQ, 2-(Cyclohexylcarbonyl)-1,2,3,6,7,11b-hexahydro-4H-pyrazino[2,1-a] isoquinolin-4-one, reference compound] | 50 | 70 | 81 | 57 (20/35) % | 43 (10/23) % | 71 | 67 | 36 | 42 | 32.5 | 60 | % cured ([1]; high infection, initial baseline epg > 400): 30 (8/26) %; % cured ([1]; high infection, initial baseline epg > 400, listed as PZQ-Placebo): 81%; % cured ([1]; low infection, initial baseline epg < 100, listed as PZQ-Placebo): 57%; % cured ([1]; moderate infection, initial baseline epg > 100 and < 400, listed as PZQ-Placebo): 70%; epg After Week 4 ([2]; individual subjects with initial baseline epg < 100, stool 4 weeks after PZQ / 1 week after end of ARA, listed as PZQ-Placebo): 8 epg and 0 epg (9×) and 5 epg (2×); epg After Week 9 ([2]; individual subjects with initial baseline epg < 100, stool 9 weeks after PZQ / 6 weeks after end of ARA, listed as PZQ-Placebo): 10 epg and 4 epg and 0 epg (10×) and 6 epg and 20 epg; epg After Week 4 ([2]; individual subjects with initial baseline epg > 100, stool 4 weeks after PZQ / 1 week after end of ARA, listed as PZQ- Placebo): 0 epg (3×) and 16 epg; epg After Week 9 ([2]; individual subjects with initial baseline epg > 100, stool 9 weeks after PZQ / 6 weeks after end of ARA, listed as PZQ- Placebo): 0 epg (4×) and 10 epg and 30 epg
